Each compound was assayed on HIV-1 (assay: Single-round infectious HIV-1 luciferase reporter virus infection of HeLa CD4 cells). Settings: Human immunodeficiency virus 1, HeLa, 72 h.
Assay type: cell-based
Experimental: • Virus production—Human embryonic Kidney cell line, 293T, was propagated in Dulbecco's Modified Eagle Medium (Invitrogen, Carlsbad, Calif.) containing 10% fetal Bovine serum (FBS, Sigma, St. Louis, Mo.). • Virus infection—Human epithelial cell line, HeLa, expressing the HIV-1 receptor CD4 was propagated in Dulbecco's Modified Eagle Medium (Invitrogen, Carlsbad, Calif.) containing 10% fetal Bovine serum (FBS, Sigma, St. Louis , Mo.) and supplemented with 0.2 mg/mL Geneticin (Invitrogen, Carlsbad, Calif.).
Transfections were performed using lipofectAMINE PLUS reagent as described by the manufacturer (Invitrogen, Carlsbad, Calif.).
• 1. […] Compound was added in a 2 μl dimethylsulfoxide solution, so that the final assay concentration would be ≦10 μM. • 3. 100 μl of single-round infectious reporter virus in Dulbecco's Modified Eagle Medium was then added to the plated cells and compound at an approximate multiplicity of infection (MOI) of 0.01, resulting in a final volume of 200 μl per well. • 4. Virally-infected cells were incubated at 37 degrees Celsius, in a CO2 incubator, and harvested 72 h after infection. • 5. Viral infection was monitored by measuring luciferase expression from viral DNA in the infected cells using a luciferase reporter gene assay kit, as described by the manufacturer (Roche Molecular Biochemicals, Indianapolis, Ind.). Infected cell supernatants were removed and 50 μl of lysis buffer was added per well. After 15 minutes, 50 μl of freshly-reconstituted luciferase assay reagent was added per well. Luciferase activity was then quantified by measuring luminescence using a Wallac microbeta scintillation counter. • 6. […] An EC50 provides a method for comparing the antiviral potency of the compounds of this disclosure. The effective concentration for fifty percent inhibition (EC50) was calculated with the Microsoft Excel Xlfit curve fitting software. For each compound, curves were generated from percent inhibition calculated at 10 different concentrations by using a four parameter logistic model (model 205).
Compound `O=C(C(=O)N1CCN(c2c(N3CCSCC3)c(=O)c2=O)CC1)c1c[nH]c2cccc(F)c12` [Number 21] has an EC50 greater than 5000 nM. `CCN(Cc1ccccc1)c1c(N2CCN(C(=O)C(=O)c3c[nH]c4cccc(F)c34)CC2)c(=O)c1=O` [Number 22] was tested, and the EC50 was greater than 5000 nM. In the case of `O=C(C(=O)N1CCN(c2c(N3CCc4ccccc4C3)c(=O)c2=O)CC1)c1c[nH]c2cccc(F)c12` [Number 23], the EC50 is reported as greater than 5000 nM. With `CN1CCN(c2c(N3CCN(C(=O)C(=O)c4c[nH]c5cccc(F)c45)CC3)c(=O)c2=O)CC1` [Number 24] the EC50 was greater than 5000 nM. `CCCN(CCC)c1c(N2CCN(C(=O)C(=O)c3c[nH]c4cccc(F)c34)CC2)c(=O)c1=O` [Number 25] was tested, and the EC50 was greater than 5000 nM. Work on `O=C(C(=O)N1CCN(c2c(N3CCC4(CCCC4)CC3)c(=O)c2=O)CC1)c1c[nH]c2cccc(F)c12` [Number 26] yielded an EC50 greater than 5000 nM. Work on `O=C(C(=O)N1CCN(c2c(-c3cccs3)c(=O)c2=O)CC1)c1c[nH]c2cccc(F)c12` [Number 27] yielded an EC50 of 50 to 500 nM. For `O=C(C(=O)N1CCN(c2c(-c3ccco3)c(=O)c2=O)CC1)c1c[nH]c2cccc(F)c12` [Number 28], the EC50 was 500 to 5000 nM. In the case of `COc1ncc(OC)c2c(C(=O)C(=O)N3CCN(c4c(-c5ccccc5)c(=O)c4=O)CC3)c[nH]c12` [Number 29], the EC50 is reported as 50 to 500 nM. With `COc1ncc(OC)c2c(C(=O)C(=O)N3CCN(c4c(-c5cccs5)c(=O)c4=O)CC3)c[nH]c12` [Number 30] the EC50 was 50 to 500 nM. In the case of `COc1cnc(Cl)c2[nH]cc(C(=O)C(=O)N3CCN(c4c(-c5ccccc5)c(=O)c4=O)CC3)c12` [Number 31], the EC50 is reported as 50 to 500 nM. `COc1ncc(OC)c2c(C(=O)C(=O)N3CCN(c4c(-c5ccccc5)c(=O)c4=O)C[C@H]3C)c[nH]c12` [Number 32] showed an EC50 of 50 to 500 nM. `COc1ncc(OC)c2c(C(=O)C(=O)N3CCN(c4c(-c5ccccc5)c(=O)c4=O)C[C@@H]3C)c[nH]c12` [Number 33] showed an EC50 of 50 to 500 nM. `COc1cnc(Br)c2[nH]cc(C(=O)C(=O)N3CCN(c4c(-c5ccccc5)c(=O)c4=O)CC3)c12` [Number 34] was tested, and the EC50 was 50 to 500 nM. `COc1cnc(-c2cnccn2)c2[nH]cc(C(=O)C(=O)N3CCN(c4c(-c5ccccc5)c(=O)c4=O)CC3)c12` [Number 35] was tested, and the EC50 was 50 to 500 nM. In the case of `COc1cnc(-n2cncn2)c2[nH]cc(C(=O)C(=O)N3CCN(c4c(-c5ccccc5)c(=O)c4=O)CC3)c12` [Number 36], the EC50 is reported as 50 to 500 nM. With `COc1ncc(OC)c2c(C(=O)C(=O)N3CCN(c4c(-c5ncco5)c(=O)c4=O)CC3)c[nH]c12` [Number 37] the EC50 was 500 to 5000 nM. Work on `COc1ncc(OC)c2c(C(=O)C(=O)N3CCN(c4c(-c5ccccc5)c(=O)c4=O)[C@@H](C)C3)c[nH]c12` [Number 38] yielded an EC50 of 50 to 500 nM. `COc1ncc(OC)c2c(C(=O)C(=O)N3CCN(c4c(-c5ccccc5)c(=O)c4=O)[C@H](C)C3)c[nH]c12` [Number 39] gave an EC50 of 50 to 500 nM. `COc1cnc(-n2ccc(C)n2)c2[nH]cc(C(=O)C(=O)N3CCN(c4c(-c5ccccc5)c(=O)c4=O)CC3)c12` [Number 40] gave an EC50 of 50 to 500 nM. `COc1ncc(OC)c2c(C(=O)C(=O)N3CCN(c4c(-c5ccc(F)cc5)c(=O)c4=O)CC3)c[nH]c12` [Number 41] was tested, and the EC50 was 50 to 500 nM. With `COc1cccc(-c2c(N3CCN(C(=O)C(=O)c4c[nH]c5c(OC)ncc(OC)c45)CC3)c(=O)c2=O)c1` [Number 42] the EC50 was 50 to 500 nM. `COc1ncc(OC)c2c(C(=O)C(=O)N3CCN(c4c(-c5nccs5)c(=O)c4=O)CC3)c[nH]c12` [Number 43] showed an EC50 of 500 to 5000 nM.

— US7501419B2, “4-Squarylpiperazine derivatives as antiviral agents” (priority 2006, dated 2009)
